Laboratory results as given in PubChem BioAssay AID2060888 (Molecular Pharmacology Branch, DTP, NCI, 2025).
Where “and” joins values, the source holds several entries; their conditions need not be identical. Identical values can stand only once.

Test system: 695427-040-R-J1-PDC complex spheroid viability
Test: Anticancer human tumor 695427-040-R-J1-PDC patient-derived colon adenocarcinoma cell line growth inhibition [RAS]
Conditions: for viability, T/C: stronger effect = lower value
How it was run: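 Multi-cell-type spheroids: tumor cells plus HUVEC endothelial cells and mesenchymal stem cells. RAS-pathway inhibitors were combined with targeted agents, each dosed in half-log steps down from clinical Cmax, or from 10 microM when Cmax was unknown.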

[1] = curve of first compound, second compound 0.00316 µM
[2] = curve of first compound, second compound 0.01 µM
[3] = curve of first compound, second compound 0.0316 µM
[4] = curve of first compound, second compound 0.1 µM
[5] = curve of first compound, second compound 0.316 µM
[6] = curve of first compound, second compound 1 µM
[7] = second compound 0.00316 µM, first compound 0.0316 µM
[8] = second compound 0.00316 µM, first compound 0.1 µM
[9] = second compound 0.01 µM, first compound 0.0316 µM
[10] = second compound 0.01 µM, first compound 0.1 µM
[11] = second compound 0.0316 µM, first compound 0.00316 µM
[12] = second compound 0.0316 µM, first compound 0.01 µM
[13] = second compound 0.0316 µM, first compound 0.0316 µM
[14] = second compound 0.0316 µM, first compound 0.1 µM
[15] = second compound 0.1 µM, first compound 0.00316 µM
[16] = second compound 0.1 µM, first compound 0.01 µM
[17] = second compound 0.1 µM, first compound 0.0316 µM
[18] = second compound 0.1 µM, first compound 0.1 µM
[19] = second compound 0.316 µM, first compound 0.00316 µM
[20] = second compound 0.316 µM, first compound 0.01 µM
[21] = second compound 0.316 µM, first compound 0.0316 µM
[22] = second compound 0.316 µM, first compound 0.1 µM
[23] = second compound 1 µM, first compound 0.00316 µM
[24] = second compound 1 µM, first compound 0.01 µM
[25] = second compound 1 µM, first compound 0.0316 µM
[26] = second compound 1 µM, first compound 0.1 µM
[27] = second compound 0.0316 µM, first compound 0.316 µM
[28] = second compound 0.0316 µM, first compound 1 µM
[29] = second compound 0.1 µM, first compound 0.316 µM
[30] = second compound 0.1 µM, first compound 1 µM
[31] = second compound 0.316 µM, first compound 0.316 µM
[32] = second compound 0.316 µM, first compound 1 µM
[33] = second compound 1 µM, first compound 0.316 µM
[34] = second compound 1 µM, first compound 1 µM
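Further: viability read after seven days of drug exposure.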
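Wherever viability, T/C is given: 100% = DMSO vehicle control viability.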

CC(C)n1nc(-c2ccc3oc(N)nc3c2)c2c(N)ncnc21 + C=CC(=O)N1CCN(c2nc(OCC3CCCN3C)nc3c(F)c(-c4nc(N)cc(C)c4C(F)(F)F)c(Cl)cc23)C(C)C1
IC50 [1]: > 100 nM
IC50 [2]: > 100 nM
IC50 [3]: > 100 nM
IC50 [4]: > 100 nM
IC50 [5]: > 100 nM
IC50 [6]: > 100 nM
viability, T/C (second compound 0.00316 µM, first compound 0.000316 µM): 98.5%
viability, T/C (second compound 0.00316 µM, first compound 0.001 µM): 96.5%
viability, T/C (second compound 0.00316 µM, first compound 0.00316 µM): 82.4%
viability, T/C (second compound 0.00316 µM, first compound 0.01 µM): 80.2%
viability, T/C [7]: 72.2%
viability, T/C [8]: 61.8%
viability, T/C (second compound 0.01 µM, first compound 0.000316 µM): 106%
viability, T/C (second compound 0.01 µM, first compound 0.001 µM): 87.4%
viability, T/C (second compound 0.01 µM, first compound 0.00316 µM): 96.5%
viability, T/C (second compound 0.01 µM, first compound 0.01 µM): 79.9%
viability, T/C [9]: 70.9%
viability, T/C [10]: 58.1%
viability, T/C (second compound 0.0316 µM, first compound 0.000316 µM): 101%
viability, T/C (second compound 0.0316 µM, first compound 0.001 µM): 89.8%
viability, T/C [11]: 86%
viability, T/C [12]: 75%
viability, T/C [13]: 76.5%
viability, T/C [14]: 65%
viability, T/C (second compound 0.1 µM, first compound 0.000316 µM): 103%
viability, T/C (second compound 0.1 µM, first compound 0.001 µM): 96.1%
viability, T/C [15]: 90%
viability, T/C [16]: 77%
viability, T/C [17]: 70.4%
viability, T/C [18]: 66.7%
viability, T/C (second compound 0.316 µM, first compound 0.000316 µM): 101%
viability, T/C (second compound 0.316 µM, first compound 0.001 µM): 88.6%
viability, T/C [19]: 88.8%
viability, T/C [20]: 84%
viability, T/C [21]: 69.9%
viability, T/C [22]: 61.6%
viability, T/C (second compound 1 µM, first compound 0.000316 µM): 98.4%
viability, T/C (second compound 1 µM, first compound 0.001 µM): 87.1%
viability, T/C [23]: 88.3%
viability, T/C [24]: 78.3%
viability, T/C [25]: 72.6%
viability, T/C [26]: 63.4%

Cc1nc(N2CCC3(CC2)COC(C)C3N)c(CO)nc1Sc1ccnc(N)c1Cl (stereo not given) + C=CC(=O)N1CCN(c2nc(OCC3CCCN3C)nc3c(F)c(-c4nc(N)cc(C)c4C(F)(F)F)c(Cl)cc23)C(C)C1
IC50 [1]: > 10000 nM
IC50 [2]: > 10000 nM
IC50 [3]: > 10000 nM
IC50 [4]: > 10000 nM
IC50 [5]: > 10000 nM
IC50 [6]: 9770 nM
viability, T/C [7]: 87%
viability, T/C [8]: 80.8%
viability, T/C (second compound 0.00316 µM, first compound 0.316 µM): 70.6%
viability, T/C (second compound 0.00316 µM, first compound 1 µM): 71%
viability, T/C (second compound 0.00316 µM, first compound 3.16 µM): 64.5%
viability, T/C (second compound 0.00316 µM, first compound 10 µM): 59.6%
viability, T/C [9]: 91.6%
viability, T/C [10]: 78.9%
viability, T/C (second compound 0.01 µM, first compound 0.316 µM): 71.9%
viability, T/C (second compound 0.01 µM, first compound 1 µM): 68.7%
viability, T/C (second compound 0.01 µM, first compound 3.16 µM): 64.5%
viability, T/C (second compound 0.01 µM, first compound 10 µM): 51.9%
viability, T/C [13]: 88.8%
viability, T/C [14]: 79%
viability, T/C [27]: 71.8%
viability, T/C [28]: 67.6%
viability, T/C (second compound 0.0316 µM, first compound 3.16 µM): 63%
viability, T/C (second compound 0.0316 µM, first compound 10 µM): 54.9%
viability, T/C [17]: 85.1%
viability, T/C [18]: 78.7%
viability, T/C [29]: 78.6%
viability, T/C [30]: 67.5%
viability, T/C (second compound 0.1 µM, first compound 3.16 µM): 65.2%
viability, T/C (second compound 0.1 µM, first compound 10 µM): 57.7%
viability, T/C [21]: 81.1%
viability, T/C [22]: 81.4%
viability, T/C [31]: 75.4%
viability, T/C [32]: 68.6%
viability, T/C (second compound 0.316 µM, first compound 3.16 µM): 65.3%
viability, T/C (second compound 0.316 µM, first compound 10 µM): 55.4%
viability, T/C [25]: 86.8%
viability, T/C [26]: 80.3%
viability, T/C [33]: 68.6%
viability, T/C [34]: 59.9%
viability, T/C (second compound 1 µM, first compound 3.16 µM): 60.5%
viability, T/C (second compound 1 µM, first compound 10 µM): 47.5%

C=CC(=O)Nc1cc(Nc2nccc(-c3cn(C)c4ccccc34)n2)c(OC)cc1N(C)CCN(C)C + C#Cc1c(F)ccc2cc(O)cc(-c3ncc4c(N5CC6CCC(C5)N6)nc(OCC56CCCN5CC(F)C6)nc4c3F)c12
IC50 [3]: 346 nM
IC50 [4]: 402 nM
IC50 [5]: 240 nM
IC50 [6]: 165 nM
IC50 (curve of first compound, second compound 3.16 µM): 50.7 nM
IC50 (curve of first compound, second compound 10 µM): < 3.16 nM
viability, T/C [11]: 99.4%
viability, T/C [12]: 92.1%
viability, T/C [13]: 92.3%
viability, T/C [14]: 69.6%
viability, T/C [27]: 53.1%
viability, T/C [28]: 31.5%
viability, T/C [15]: 93.1%
viability, T/C [16]: 100%
viability, T/C [17]: 80.9%
viability, T/C [18]: 69.9%
viability, T/C [29]: 58.6%
viability, T/C [30]: 29.2%
viability, T/C [19]: 95.8%
viability, T/C [20]: 81%
viability, T/C [21]: 77.8%
viability, T/C [22]: 61.5%
viability, T/C [31]: 48.1%
viability, T/C [32]: 27.6%
viability, T/C [23]: 72.6%
viability, T/C [24]: 79.7%
viability, T/C [25]: 68.9%
viability, T/C [26]: 59%
viability, T/C [33]: 38.7%
viability, T/C [34]: 23%
viability, T/C (second compound 3.16 µM, first compound 0.00316 µM): 57.7%
viability, T/C (second compound 3.16 µM, first compound 0.01 µM): 55.1%
viability, T/C (second compound 3.16 µM, first compound 0.0316 µM): 56.6%
viability, T/C (second compound 3.16 µM, first compound 0.1 µM): 42.6%
viability, T/C (second compound 3.16 µM, first compound 0.316 µM): 30.6%
viability, T/C (second compound 3.16 µM, first compound 1 µM): 20%
viability, T/C (second compound 10 µM, first compound 0.00316 µM): 39.4%
viability, T/C (second compound 10 µM, first compound 0.01 µM): 41.5%
viability, T/C (second compound 10 µM, first compound 0.0316 µM): 37.3%
viability, T/C (second compound 10 µM, first compound 0.1 µM): 32.4%
viability, T/C (second compound 10 µM, first compound 0.316 µM): 25.8%
viability, T/C (second compound 10 µM, first compound 1 µM): 15.7%

CC(C)NCC(C(=O)N1CCN(c2ncnc3c2C(C)CC3O)CC1)c1ccc(Cl)cc1 (stereo not given)
viability, T/C (compound 0.0316 µM): 102% [middle of 4 runs]
viability, T/C (compound 0.316 µM): 96.3% [middle of 4 runs]
viability, T/C (compound 1 µM): 88.8% [middle of 4 runs]
IC50 (curve of compound): > 10000 nM and 10000 nM
